Results from ChEMBL document CHEMBL1201862, “PubChem BioAssay data set” (2004).
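These data come from cells grown in 96-well plates and exposed to compound for 48 hours at five concentrations. Abbreviation: GI50, concentration required for 50% inhibition of growth.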 Activity calls are given as the source filed them. Cut-off read from the data, not from the text of the source: active = GI50 up to about 1.1 µM and inactive = higher.

What was measured:
Assay in all cases: NCI anticancer screen, dose series, 48 h
HOP-62 = tested on: HOP-62
SF-539 = tested on: SF-539
HCT-116 = tested on: HCT-116
MOLT-4 = tested on: MOLT-4
SF-295 = tested on: SF-295
COLO 205 = tested on: COLO 205
IGROV-1 = tested on: IGROV-1
NCI-H23 = tested on: NCI-H23
U-251 = tested on: U-251
SNB-78 = tested on: SNB-78
NCI-H226 = tested on: NCI-H226
TK-10 = tested on: TK-10
ACHN = tested on: ACHN
OVCAR-4 = tested on: OVCAR-4
M19-MEL = tested on: M19-MEL
UACC-62 = tested on: UACC-62
NCI-H522 = tested on: NCI-H522
OVCAR-3 = tested on: OVCAR-3
CCRF-CEM = tested on: CCRF-CEM
SK-MEL-28 = tested on: SK-MEL-28
SNB-19 = tested on: SNB-19
SK-MEL-5 = tested on: SK-MEL-5
SK-MEL-2 = tested on: SK-MEL-2
SNB-75 = tested on: SNB-75
HL-60 = tested on: HL-60
HT-29 = tested on: HT-29
OVCAR-8 = tested on: OVCAR-8
RPMI-8226 = tested on: RPMI-8226
CAKI-1 = tested on: CAKI-1
KM-20L2 = tested on: KM-20L2
Malme-3M = tested on: Malme-3M
HOP-92 = tested on: HOP-92
UACC-257 = tested on: UACC-257
HCT-15 = tested on: HCT-15
M14 = tested on: M14
EKVX = tested on: EKVX
A549 = tested on: A549
KM12 = tested on: KM12
SW-620 = tested on: SW-620
K562 = tested on: K562
XF498 = tested on: XF498
NCI-H460 = tested on: NCI-H460
SK-OV-3 = tested on: SK-OV-3
UO-31 = tested on: UO-31
LOX IMVI = tested on: LOX IMVI
DLD-1 = tested on: DLD-1
DMS-114 = tested on: DMS-114
SR = tested on: SR
LXFL 529 = tested on: LXFL 529
786-0 = tested on: 786-0
OVCAR-5 = tested on: OVCAR-5
SF-268 = tested on: SF-268
SN12C = tested on: SN12C

SMILES: O=[N+]([O-])c1nccn1COCCF
- GI50 (HOP-62): > 100 µM (inactive)
- GI50 (SF-539): > 100 µM (inactive)
- GI50 (HCT-116): > 100 µM (inactive)
- GI50 (MOLT-4): > 100 µM (inactive)
- GI50 (SF-295): > 100 µM (inactive)
- GI50 (COLO 205): > 100 µM (inactive)
- GI50 (IGROV-1): > 100 µM (inactive)
- GI50 (NCI-H23): > 100 µM (inactive)
- GI50 (U-251): > 100 µM (inactive)
- GI50 (SNB-78): > 100 µM (inactive)
- GI50 (NCI-H226): > 100 µM (inactive)
- GI50 (TK-10): > 100 µM (inactive)
- GI50 (ACHN): > 100 µM (inactive)
- GI50 (OVCAR-4): > 100 µM (inactive)
- GI50 (M19-MEL): > 100 µM (inactive)
- GI50 (UACC-62): > 100 µM (inactive)
- GI50 (NCI-H522): > 100 µM (inactive)
- GI50 (OVCAR-3): > 100 µM (inactive)
- GI50 (CCRF-CEM): > 100 µM (inactive)
- GI50 (SK-MEL-28): > 100 µM (inactive)
- GI50 (SNB-19): > 100 µM (inactive)
- GI50 (SK-MEL-5): > 100 µM (inactive)
- GI50 (SK-MEL-2): > 100 µM (inactive)
- GI50 (SNB-75): 64.6 µM (inactive)
- GI50 (HL-60): > 100 µM (inactive)
- GI50 (HT-29): > 100 µM (inactive)
- GI50 (OVCAR-8): > 100 µM (inactive)
- GI50 (RPMI-8226): > 100 µM (inactive)
- GI50 (CAKI-1): > 100 µM (inactive)
- GI50 (KM-20L2): > 100 µM (inactive)
- GI50 (Malme-3M): > 100 µM (inactive)
- GI50 (HOP-92): > 100 µM (inactive)
- GI50 (UACC-257): > 100 µM (inactive)
- GI50 (HCT-15): > 100 µM
- GI50 (M14): > 100 µM (inactive)
- GI50 (EKVX): > 100 µM (inactive)
- GI50 (A549): > 100 µM (inactive)
- GI50 (KM12): > 100 µM (inactive)
- GI50 (SW-620): > 100 µM (inactive)
- GI50 (K562): > 100 µM (inactive)
- GI50 (XF498): > 100 µM (inactive)
- GI50 (NCI-H460): > 100 µM (inactive)
- GI50 (SK-OV-3): > 100 µM (inactive)
- GI50 (UO-31): > 100 µM (inactive)
- GI50 (LOX IMVI): > 100 µM (inactive)
- GI50 (DLD-1): > 100 µM (inactive)
- GI50 (DMS-114): > 100 µM (inactive)
- GI50 (SR): > 100 µM (inactive)
- GI50 (LXFL 529): > 100 µM (inactive)
- GI50 (786-0): > 100 µM (inactive)
- GI50 (OVCAR-5): > 100 µM (inactive)
- GI50 (SF-268): > 100 µM (inactive)
- GI50 (SN12C): > 100 µM (inactive)
